Results: patent US20170303540A1, “NOVEL TRIAZOLE DERIVATIVES” (BAYER CROPSCIENCE AKTIENGESELLSCHAFT, priority 2014, published 2017)

test: Log P by HPLC on reversed phase columns (EEC directive 79/831 Annex V.A8); assay type: physicochemical; settings: method [a]: HPLC/LC-MS at pH 2.7, 0.1% formic acid in water / acetonitrile gradient
Description: Measurement of Log P values for Table 2 was performed according to EEC directive 79/831 Annex V.A8 by HPLC (High Performance Liquid Chromatography) on reversed phase columns with the following methods: ^[a]Measurement of LC-MS was done at pH 2.7 with 0.1% formic acid in water and with acetonitrile (contains 0.1% formic acid) as eluent with a linear gradient from 10% acetonitrile to 95% acetonitrile. […] Lambda-max-values were determined using UV-spectra from 200 nm to 400 nm and the peak values of the chromatographic signals.

Compound	LogP
CC(CF)(CF)C(O)(Cc1ccnnc1Cl)Cn1cncn1 (stereo not drawn) [Example I-530]	1.28^[a]
OC(Cc1ccnnc1Cl)(Cn1cncn1)C1CC1 (stereo not drawn) [Example I-799]	0.84^[a]
CCC1(C(O)(Cc2ccnnc2Cl)Cn2cncn2)CC1 (stereo not drawn) [Example I-745]	1.59^[a]
CC(C)(CF)C(O)(Cc1ccnnc1Cl)Cn1cncn1 (stereo not drawn) [Example I-593]	1.31^[a]
CC(C)(Cc1ccc(Cl)cc1)C(O)(Cc1ccnnc1Cl)Cn1cncn1 (stereo not drawn) [Example I-368]	2.75^[a]
CC(C)(CCl)C(O)(Cc1ccnnc1Cl)Cn1cncn1 (stereo not drawn) [Example I-771]	1.70^[a]
C=CC(C)(C)C(O)(Cc1ccnnc1Cl)Cn1cncn1 (stereo not drawn) [Example I-592]	1.60^[a]

More lines, now with the values ahead:

LogP	Compound
2.96^[a]	OC(Cc1ccc(Cl)cc1Cl)(Cc1cc(Cl)nnc1Cl)Cn1cncn1 (stereo not drawn) [Example I-480]
2.34^[a]	OC(Cc1ccc(Cl)cc1Cl)(Cc1ccnnc1Cl)Cn1cncn1 (stereo not drawn) [Example I-444]
1.49^[a]	OC(Cc1cc(Cl)nnc1Cl)(Cn1cncn1)C1CC1 (stereo not drawn) [Example I-710]
2.18^[a]	CCC1(C(O)(Cc2cc(Cl)nnc2Cl)Cn2cncn2)CC1 (stereo not drawn) [Example I-441]

same assay, conditions: reversed phase HPLC columns; method [a]: HPLC/LC-MS at pH 2.7, 0.1% formic acid in water / acetonitrile gradient

chromatographic logP	Compound
1.48	CC(C)(C)C(O)(Cc1ccnnc1Cl)Cn1cncn1 (stereo not drawn) [Example I-713, 1-(3-chloropyridazin-4-yl)-3,3-dimethyl-2-(1H-1,2,4-triazol-1-ylmethyl)butan-2-ol]
